Where no end group is shown, it is not given here.
How the values were obtained:
DU-145 Target Cells = assay: Natural killer assay (^51Cr release), human PBLs against DU-145; format: cell-based; settings: PT 0.05 μg/ml
Procedure: Murine spleen cell and human peripheral blood lymphocytes (PBLs) were obtained as described in the procedure for the Mitogen Assay.
Drugs and control substances were added, using sterile techniques, to the wells of a 24-well plate, using RPMI-10 as the culture medium. Spleen cells or human lymphocytes were added last to the wells at a concentration of 4×10^6 cells per 2 ml total volume in the well. Splenocyte incubation was usually three days (65-70 hours) while human lymphocyte stimulation may be extended to four to five days. The cells were incubated at 37° C. in a humidified 5% CO2 incubator.
On the day of harvest, 10^7 target cells were labeled with 150 μCi of ^51Cr (sodium chromate). Target cells used were YAC-I (murine Lymphoma) or K562 (human chronic myelogenous leukemia). […]
The 96-well plate was centrifuged at 150×g for four minutes to gently bring the effector and target cells in contact. […] The percent release was calculated using the following formula: […]
Addition of PT stimulates both murine splenocytes and human PBLs to kill tumor cells through lysis. […] After a 30-minute incubation, the radioactivity in the supernatant fluid was counted as a measure of lysis of the target cells, which reflects NK activity. […]

[1] = test system: T cells in the spleen and thymus; assay: FITC Thy-1.2 staining of T cells after ip injection; format: in vivo, Swiss Webster mice
Procedure: Using sterile technique the spleen or thymus was removed from a mouse euthanized by CO2 gas. The organ was teased apart to collect splenocytes or thymocytes, respectively. The cells were treated with red cell lysing buffer at 37° C. to remove the erthyrocytes, then washed several times in culture medium, RPMI-10. The cells were counted using Trypan Blue exclusion to determine viable cell yield (as described above) and resuspended in PBS/1% BSA/0.1% sodium azide buffer (pH 7.2) at 2×10^7 cells/ml.
To a microfuge tube, in ice, was added 100 μl of cell suspension (2×10^7 cells/ml). Five microliters of FcγR Block (CD16/CD32 Block; Pharmingen, San Diego, Calif.), diluted to 50 μg/ml with PBS/BSA/Azide Buffer, is added. The tube was gently mixed and kept on ice for three minutes.
One hundred microliters of Thy 1.2 FITC stain (10 μg/ml) were added and the tube was gently vortexed. Cells were stained for 30 minutes at 4° C., followed by centrifugation in a microfuge centrifuge at 4500 rpm for three minutes. The cells were washed twice with 500 μl ice-cold PBS/BSA/Azide buffer, and resuspended each time by gentle vortexing.
One hundred microliters of 1% paraformaldehyde (in PBS) were added to the cell pellet, and the cells were thoroughly mixed, then incubated 20 minutes at 4° C. The cells were then washed once with 500 μl of 2.19% glycine and resuspended in 500 μl of sterile PBS.
Fifteen microliters of the stained cell suspension were placed as two non-overlapping spots on a 1-mm thick glass slide that had been cleaned with ethanol. The cell droplets were allowed to dry without spreading or using a cover slip. The slides were air-dried in a hood, covered with aluminum foil to exclude light (in order to prevent photobleaching). If the slide was pre-cleaned and dried correctly, the droplets will naturally dry to a diameter of about 10 mm. The slides should be read within one week.
Cells were evaluated using a Zeiss oil-immersion microscope (UV-lamp, filter #47; Carl Zeiss Inc., Thornwood, N.Y.). Non-stained cells appeared medium-brown in color on a dark background. […] Partially stained cells that have a partial ring were counted separately. The percentage of non-stained, partially stained, and completely stained cells was determined. At least 200 cells per slide were scored, but usually about 300-400 cells were counted.
Data set out in Table 4, and discussed above, indicate that PT stimulates mitogen activity with murine splenocytes in vitro. This could come about through the action of activated macrophages on T cells by IL-1 production and antigen presentation to the T cells. […] T cells were detected with fluorescent-labeled (FITC) Thy 1.2 monoclonal antibody, which is a general antibody for all T cells. The cells were counted manually with a fluorescent microscope, and the data are divided into cells with no stain (no fluorescence), cells with partial staining (medium fluorescence), and cells with intense staining (high fluorescence). The mice were injected with the indicated amount of PT intraperitoneally and the animals sacrificed after three days to obtain the spleen and thymus.

## Pyrularia thionin (KSCCRNTWARNCYNVCRLPGTISREICAKKCDCKIISGTTCPSDYPK; ends and bridges not checked; also: labeled with 125I) [PT]
DU-145 Target Cells
  % Cytotoxicity: 11.5 ± 1.1%
[1]; 10 μg of PT injected intraperitoneally into Swiss Webster mice
  number of T cells in the spleen and thymus: increase in the number of T cells in the spleen and thymus
[1]; Experiment 1, 7 week male mice, 10 μg PT ip, after three days, none: 13
  Splenic cells, Medium Fluor.: 24 ± 4.2%
[1]; Experiment 1, 7 week male mice, 10 μg PT ip, after three days, none: 18
  Splenic cells, High Fluor.: 30 ± 5.0%
[1]; Experiment 1, 7 week male mice, 10 μg PT ip, after three days, none: 69
  Splenic cells, No Fluor.: 46 ± 0.4%
[1]; Experiment 2, 6 month male mice, 10 μg PT ip, after three days, none: 21
  Splenic cells, Medium Fluor.: 36 ± 2.1%
[1]; Experiment 2, 6 month male mice, 10 μg PT ip, after three days, none: 29
  Splenic cells, High Fluor.: 32 ± 1.4%
[1]; Experiment 2, 6 month male mice, 10 μg PT ip, after three days, none: 50
  Splenic cells, No Fluor.: 32 ± 1.1%
[1]; Experiment 3, 4 month females, 5 μg PT ip, after three days, none: 24
  Splenic cells, Medium Fluor.: 28 ± 2.2%
[1]; Experiment 3, 4 month females, 5 μg PT ip, after three days, none: 25
  Thymus cells, High Fluor.: 39 ± 2.9%
[1]; Experiment 3, 4 month females, 5 μg PT ip, after three days, none: 26
  Splenic cells, High Fluor.: 31 ± 2.5%
[1]; Experiment 3, 4 month females, 5 μg PT ip, after three days, none: 27
  Thymus cells, Medium Fluor.: 29 ± 1.5%
[1]; Experiment 3, 4 month females, 5 μg PT ip, after three days, none: 48
  Thymus cells, No. Fluor.: 32 ± 4.4%
[1]; Experiment 3, 4 month females, 5 μg PT ip, after three days, none: 50
  Splenic cells, No Fluor.: 41 ± 3.5%

Reference: patent US7572436B1, “Thionin as an antineoplastic and immunostimulant” (priority 2000, dated 2009)
